System: normal human dermal fibroblasts (NHDF)
Experiment: Gene expression in NHDF, full transcriptome analysis with Affymetrix U219 microarray
Assay type: cell-based
Conditions: 10 mg/ml
Protocol: In the present study, the transcriptional effects (modulation of gene expression) of compounds 1, 2, 3 and 4 were evaluated on normal human dermal fibroblasts (NHDF) under basal conditions.
More specifically, the comparative analysis of the different transcriptomic profiles was performed using an Affymetrix GeneAtlas platform and the human “full transcriptome” U219 chip, which includes 36,000 transcripts and variants.
Fibroblasts were seeded in 24-well plates and cultured in culture medium for 24 hours. The medium was then replaced by assay medium and cells were incubated for further 24 hours. The medium was replaced by assay medium containing or not (control) the test compounds at different concentrations and the cells were preincubated for 24 hours. All experimental conditions were performed in triplicate. At the end of incubation, the culture supernatants were removed and the cells were washed in a phosphate buffered saline (PBS) solution and immediately frozen at −80° C.
Before RNA extraction, the replicates were pooled. Total RNA was extracted from each sample using TriPure Isolation Reagent® according to the supplier's instructions. The amount and quality of total RNA were evaluated for all samples using capillary electrophoresis (Bioanalyzer 2100, Agilent technologies). From each RNA, a labeled and amplified anti-sens RNA (aRNA) was obtained using GeneChip 3′IVT PLUS Kit (Affymetrix). For each labeled and amplified aRNA sample the profiles were evaluated before and after fragmentation using capillary electrophoresis (Bioanalyzer 2100, Agilent technologies). Hybridization of fragmented aRNA onto Affymetrix® U219 chip (36,000 transcripts and variants) was performed in the GeneAtlas™ fluidics Affymetrix® hybridization station for 20 hours at 45° C. U219 chip was analyzed using the GeneAtlas™ Imaging station (Affymetrix®—resolution 2 μm) to generate fluorescence intensity data.
Expression Console and Quality controls: data were normalized with the Expression Console (Affymetrix®) software using RMA algorithm. Then a quality control of the labeling and the hybridization was performed. Hybridization and labeling steps successfully passed the quality controls for these experiments.
Data reduction, Excel file description: once normalized with Expression Console, data were transferred into a Microsoft Excel® file in order to go further into data reduction.
Calculation and tools were added in order to rank and sort data, and finally to support data interpretation. Detection thresholds in terms of fold change were defined and applied on normalized data.
Results are considered and presented or commented per gene (and not probe). A probe set is a collection of probes designed to interrogate a given sequence of a gene. For data interpretation, the most important relative expression value obtained with one probe is considered to be representative of the corresponding gene. The file contains the following data: • Relative expression (RE) for each sample, • Fold change calculation, • Gene information.

[1] = relative expression adjusted to detection limit (<20), NHDF, 24 h
[2] = signed value, Tables 13-14, NHDF

Compound: C[C@H](NC(=O)[C@H](C)NC(=O)[C@@H](N)CCCCNCC(F)(F)[C@]1(O)O[C@H](CO)[C@H](O)[C@H](O)[C@H]1O)C(=O)O [Compound 1]
- REadj2, PCYT2 [1]: 188.93
- REadj2, PLD1 [1]: 176.07
- REadj2, PTPLA [1]: 498.96
- REadj2, SOAT1 [1]: 390.22
- REadj2, SREBF1 [1]: 519.22
- REadj2, POR (relative expression adjusted to detection limit (<20), NHDF, 24 h, probe set 11716114_x_at): 256.70
- REadj2, HMGCS1 (relative expression adjusted to detection limit (<20), NHDF, 24 h, probe set 11716987_a_at): 875.52
- REadj2, EBP (relative expression adjusted to detection limit (<20), NHDF, 24 h, probe set 11717859_a_at): 582.73
- REadj2, FDPS (relative expression adjusted to detection limit (<20), NHDF, 24 h, probe set 11718366_s_at): 2391.43
- REadj2, MVK (relative expression adjusted to detection limit (<20), NHDF, 24 h, probe set 11719098_a_at): 135.62
- REadj2, PGS1 (relative expression adjusted to detection limit (<20), NHDF, 24 h, probe set 11724792_a_at): 118.91
- REadj2, KDSR (relative expression adjusted to detection limit (<20), NHDF, 24 h, probe set 11730180_s_at): 1037.81
- REadj2, KDSR (relative expression adjusted to detection limit (<20), NHDF, 24 h, probe set 11730181_s_at): 549.40
- REadj2, GBA (relative expression adjusted to detection limit (<20), NHDF, 24 h, probe set 11736100_a_at): 445.83
- REadj2, CHKA (relative expression adjusted to detection limit (<20), NHDF, 24 h, probe set 11736285_a_at): 104.91
- REadj2, CHKA (relative expression adjusted to detection limit (<20), NHDF, 24 h, probe set 11736286_a_at): 120.28
- REadj2, PHLDB2 (relative expression adjusted to detection limit (<20), NHDF, 24 h, probe set 11737039_a_at): 119.06
- REadj2, PHLDB2 (relative expression adjusted to detection limit (<20), NHDF, 24 h, probe set 11737041_a_at): 128.19
- REadj2, PHLDB2 (relative expression adjusted to detection limit (<20), NHDF, 24 h, probe set 11737042_s_at): 120.07
- REadj2, PHLDB2 (relative expression adjusted to detection limit (<20), NHDF, 24 h, probe set 11737043_x_at): 178.68
- REadj2, NPC1 (relative expression adjusted to detection limit (<20), NHDF, 24 h, probe set 11743916_a_at): 361.48
- REadj2, FADS1///MIR1908 (relative expression adjusted to detection limit (<20), NHDF, 24 h, probe set 11745459_a_at): 1633.20
- REadj2, NPC1 (relative expression adjusted to detection limit (<20), NHDF, 24 h, probe set 11746723_a_at): 192.21
- REadj2, MVK (relative expression adjusted to detection limit (<20), NHDF, 24 h, probe set 11747747_a_at): 83.27
- REadj2, POR (relative expression adjusted to detection limit (<20), NHDF, 24 h, probe set 11748368_x_at): 269.37
- REadj2, PGS1 (relative expression adjusted to detection limit (<20), NHDF, 24 h, probe set 11748428_a_at): 84.52
- REadj2, EBP (relative expression adjusted to detection limit (<20), NHDF, 24 h, probe set 11749332_x_at): 445.85
- REadj2, GBA (relative expression adjusted to detection limit (<20), NHDF, 24 h, probe set 11750975_x_at): 439.06
- REadj2, GBA (relative expression adjusted to detection limit (<20), NHDF, 24 h, probe set 11751085_a_at): 451.06
- REadj2, GBA (relative expression adjusted to detection limit (<20), NHDF, 24 h, probe set 11751086_x_at): 338.51
- REadj2, KDSR (relative expression adjusted to detection limit (<20), NHDF, 24 h, probe set 11751627_a_at): 533.05
- REadj2, FADS1///MIR1908 (relative expression adjusted to detection limit (<20), NHDF, 24 h, probe set 11752670_a_at): 2502.62
- REadj2, GBA (relative expression adjusted to detection limit (<20), NHDF, 24 h, probe set 11753440_x_at): 229.00
- REadj2, HMGCS1 (relative expression adjusted to detection limit (<20), NHDF, 24 h, probe set 11754918_s_at): 929.88
- REadj2, FADS1///MIR1908 (relative expression adjusted to detection limit (<20), NHDF, 24 h, probe set 11755251_x_at): 1571.10
- REadj2, FDPS (relative expression adjusted to detection limit (<20), NHDF, 24 h, probe set 11758249_s_at): 2098.38
- Fold change, ABCA1 [2]: 2.112
- Fold change, ABHD5 [2]: 2.634
- Fold change, ACAT2 [2]: 2.124
- Fold change, ACSS2 [2]: 2.288
- Fold change, ADORA2B [2]: 2.461
- Fold change, AKR1B1 [2]: 4.194
- Fold change, AKR1C1/AKR1C2 [2]: 2.597
- Fold change, ALDH1A3 [2]: −3.504
- Fold change, ANGPT1 [2]: −2.510
- Fold change, CD9 [2]: 2.337
- Fold change, CH25H [2]: −2.770
- Fold change, CHKA [2]: 2.999
- Fold change, CLN3 [2]: 2.570
- Fold change, CYP19A1 [2]: 2.736
- Fold change, CYP51A1 [2]: 2.202
- Fold change, DHCR7 [2]: 3.675
- Fold change, DHCR24 [2]: 2.267
- Fold change, EBP [2]: 2.685
- Fold change, EGR1 [2]: −2.928
- Fold change, FADS1 [2]: 4.196
- Fold change, FADS2 [2]: 2.642
- Fold change, FDPS [2]: 2.104
- Fold change, FGF2 [2]: 2.008
- Fold change, FOS [2]: −2.521
- Fold change, GBA [2]: 3.016
- Fold change, GPER1 [2]: 2.031
- Fold change, GRP [2]: −2.699
- Fold change, HMGCR [2]: 2.018
- Fold change, HMOX1 [2]: 5.168
- Fold change, HSD3B7 [2]: 2.132
- Fold change, HSD17B7 [2]: 2.443
- Fold change, HTR2B [2]: 2.118
- Fold change, IDI1 [2]: 2.013
- Fold change, IGFBP2 [2]: −2.717
- Fold change, INSIG1 [2]: 3.422
- Fold change, KDSR [2]: 2.288
- Fold change, LDLR [2]: 2.988
- Fold change, LPIN1 [2]: 2.458
- Fold change, LSS [2]: 2.527
- Fold change, MAP3K8 [2]: 3.713
- Fold change, ME1 [2]: 2.548
- Fold change, MVD [2]: 2.448
- Fold change, MVK [2]: 2.082
- Fold change, NGF [2]: −2.648
- Fold change, NPC1 [2]: 6.532
- Fold change, NRG1 [2]: −2.111
- Fold change, NSMAF [2]: 2.624
- Fold change, NTN1 [2]: 2.832
- Fold change, PCYT2 [2]: 2.412
- Fold change, PDE5A [2]: −3.902
- Fold change, PDK4 [2]: −2.280
- Fold change, PGS1 [2]: 2.410
- Fold change, PLAU [2]: −2.785
- Fold change, PLD1 [2]: 2.155
- Fold change, POR [2]: 2.200
- Fold change, PTGS1 [2]: 3.893
- Fold change, RAB27A [2]: 2.279
- Fold change, RUNX1 [2]: 2.441
- Fold change, S1PR1 [2]: 2.651
- Fold change, SCD [2]: 7.772
- Fold change, SEMA3A [2]: −3.169
- Fold change, SERINC2 [2]: 2.635
- Fold change, SLC1A3 [2]: 4.715
- Fold change, SOAT1 [2]: 2.012
- Fold change, SOCS3 [2]: 3.734
- Fold change, SREBF1 [2]: 3.237
- Fold change, ST6GALNAC5 [2]: 2.080
- Fold change, STC1 [2]: 3.016

Reference: patent publication US20220267380A1, “Glycopeptides Increasing Lipid Synthesis” (TFCHEM, priority 2019, published 2022)
